In the supplement of paper PMC10307832:

Legend:
Assay in all cases: relative viability (nuclei count vs DMSO), 5 days (fraction); higher = more cells survive
RERF-LC-KJ = test system: RERF-LC-KJ
In short: (§1)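 Lung cancer cell lines were seeded in 1536-well plates and dosed by pin tool the next day, with either a single drug or a fixed anchor-drug dose combined with five library-drug doses (not always all listed) spaced in √10 steps. Five days later, one step fixed the cells and stained their nuclei (final 0.05% Triton X-100, 1% formaldehyde, 1 ug/ml Hoechst), and nuclei were counted on 4× images. Relative viability is the nuclei count in treated wells divided by the count in vehicle wells, and each value is the median of duplicate plates.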

LU99A = test system: LU99A
In short: as §1

SK-LU-1 = test system: SK-LU-1
In short: as §1

EMC-BAC-2 = test system: EMC-BAC-2
In short: as §1

SW 1573 = test system: SW 1573
In short: as §1

NCI-H1666 = test system: NCI-H1666
In short: as §1

NCI-H1975 = test system: NCI-H1975
In short: as §1

EPLC-272H = test system: EPLC-272H
In short: as §1

NCI-H322M = test system: NCI-H322M
In short: as §1

NCI-H23 = test system: NCI-H23
In short: as §1

LOU-NH91 = test system: LOU-NH91
In short: as §1

HCC-827 = test system: HCC-827
In short: as §1

NCI-H3122 = test system: NCI-H3122
In short: as §1

LXF-289 = test system: LXF-289
In short: as §1

NCI-H2085 = test system: NCI-H2085
In short: as §1

ChaGo-K-1 = test system: ChaGo-K-1
In short: as §1

HCC-78 = test system: HCC-78
In short: as §1

LCLC-103H = test system: LCLC-103H
In short: as §1

NCI-H2126 = test system: NCI-H2126
In short: as §1

LK-2 = test system: LK-2
In short: as §1

SW 900 = test system: SW 900
In short: as §1

NCI-H2405 = test system: NCI-H2405
In short: as §1

Work on `O=C(O)c1ccc(-c2c[nH]c3ncc(-c4ccccc4)cc23)cc1C1CCCC1` + O=C(CCCCCCC(=O)Nc1ccccc1)NO [Vorinostat] (partner 1 µM) yielded a relative viability (RERF-LC-KJ; first compound 0.04 µM) of 0.714, a relative viability (RERF-LC-KJ; first compound 0.1265 µM) of 0.74 and a relative viability (RERF-LC-KJ; first compound 0.4 µM) of 0.724. The relative viability (RERF-LC-KJ; first compound 1.265 µM) was 0.574, the relative viability (LU99A; first compound 0.04 µM) was 0.583 and the relative viability (LU99A; first compound 0.1265 µM) was 0.46. For the same compound, the relative viability (LU99A; first compound 0.4 µM) was 0.469, the relative viability (LU99A; first compound 1.265 µM) was 0.421 and the relative viability (SK-LU-1; first compound 0.04 µM) was 0.793. It also gave a relative viability (SK-LU-1; first compound 0.1265 µM) of 0.717, a relative viability (SK-LU-1; first compound 0.4 µM) of 0.684 and a relative viability (SK-LU-1; first compound 1.265 µM) of 0.364. The relative viability (EMC-BAC-2; first compound 0.04 µM) was 0.421, the relative viability (EMC-BAC-2; first compound 0.1265 µM) was 0.575 and the relative viability (EMC-BAC-2; first compound 0.4 µM) was 0.449. It also gave a relative viability (EMC-BAC-2; first compound 1.265 µM) of 0.391, a relative viability (SW 1573; first compound 0.04 µM) of 0.949 and a relative viability (SW 1573; first compound 0.1265 µM) of 0.878. For the same compound, the relative viability (SW 1573; first compound 0.4 µM) was 0.699, the relative viability (SW 1573; first compound 1.265 µM) was 0.656 and the relative viability (NCI-H1666; first compound 0.04 µM) was 1.04. For the same compound, the relative viability (NCI-H1666; first compound 0.1265 µM) was 1.02, the relative viability (NCI-H1666; first compound 0.4 µM) was 1.08 and the relative viability (NCI-H1666; first compound 1.265 µM) was 0.737. For the same compound, the relative viability (NCI-H1975; first compound 0.04 µM) was 0.684, the relative viability (NCI-H1975; first compound 0.1265 µM) was 0.763 and the relative viability (NCI-H1975; first compound 0.4 µM) was 0.736. The relative viability (NCI-H1975; first compound 1.265 µM) was 0.441, the relative viability (EPLC-272H; first compound 0.04 µM) was 0.503 and the relative viability (EPLC-272H; first compound 0.1265 µM) was 0.654. It also gave a relative viability (EPLC-272H; first compound 0.4 µM) of 0.483, a relative viability (EPLC-272H; first compound 1.265 µM) of 0.261 and a relative viability (NCI-H322M; first compound 0.04 µM) of 0.909. For the same compound, the relative viability (NCI-H322M; first compound 0.1265 µM) was 0.858, the relative viability (NCI-H322M; first compound 0.4 µM) was 0.898 and the relative viability (NCI-H322M; first compound 1.265 µM) was 0.855. For the same compound, the relative viability (NCI-H23; first compound 0.04 µM) was 0.791, the relative viability (NCI-H23; first compound 0.1265 µM) was 0.844 and the relative viability (NCI-H23; first compound 0.4 µM) was 0.588. For the same compound, the relative viability (NCI-H23; first compound 1.265 µM) was 0.575, the relative viability (LOU-NH91; first compound 0.04 µM) was 0.987 and the relative viability (LOU-NH91; first compound 0.1265 µM) was 0.992. The relative viability (LOU-NH91; first compound 0.4 µM) was 0.942, the relative viability (LOU-NH91; first compound 1.265 µM) was 0.86 and the relative viability (HCC-827; first compound 0.04 µM) was 0.372. It also gave a relative viability (HCC-827; first compound 0.1265 µM) of 0.913, a relative viability (HCC-827; first compound 0.4 µM) of 0.815 and a relative viability (HCC-827; first compound 1.265 µM) of 0.75. The relative viability (NCI-H3122; first compound 0.04 µM) was 1.1, the relative viability (NCI-H3122; first compound 0.1265 µM) was 1.07 and the relative viability (NCI-H3122; first compound 0.4 µM) was 1.12. The relative viability (NCI-H3122; first compound 1.265 µM) was 0.855, the relative viability (LXF-289; first compound 0.04 µM) was 0.769 and the relative viability (LXF-289; first compound 0.1265 µM) was 0.773. It also gave a relative viability (LXF-289; first compound 0.4 µM) of 0.632, a relative viability (LXF-289; first compound 1.265 µM) of 0.398 and a relative viability (NCI-H2085; first compound 0.04 µM) of 0.793. The relative viability (NCI-H2085; first compound 0.1265 µM) was 0.857, the relative viability (NCI-H2085; first compound 0.4 µM) was 0.779 and the relative viability (NCI-H2085; first compound 1.265 µM) was 0.642. It also gave a relative viability (ChaGo-K-1; first compound 0.04 µM) of 0.739, a relative viability (ChaGo-K-1; first compound 0.1265 µM) of 0.786 and a relative viability (ChaGo-K-1; first compound 0.4 µM) of 0.772. It also gave a relative viability (ChaGo-K-1; first compound 1.265 µM) of 0.686, a relative viability (HCC-78; first compound 0.1265 µM) of 0.451 and a relative viability (HCC-78; first compound 0.4 µM) of 0.441. The relative viability (HCC-78; first compound 1.265 µM) was 0.448, the relative viability (LCLC-103H; first compound 0.04 µM) was 0.777 and the relative viability (LCLC-103H; first compound 0.1265 µM) was 0.758. For the same compound, the relative viability (LCLC-103H; first compound 0.4 µM) was 0.779, the relative viability (LCLC-103H; first compound 1.265 µM) was 0.76 and the relative viability (NCI-H2126; first compound 0.04 µM) was 0.823. The relative viability (NCI-H2126; first compound 0.1265 µM) was 0.755, the relative viability (NCI-H2126; first compound 0.4 µM) was 0.786 and the relative viability (NCI-H2126; first compound 1.265 µM) was 0.616. For the same compound, the relative viability (LK-2; first compound 0.04 µM) was 0.333, the relative viability (LK-2; first compound 0.1265 µM) was 0.311 and the relative viability (LK-2; first compound 0.4 µM) was 0.385. For the same compound, the relative viability (LK-2; first compound 1.265 µM) was 0.199, the relative viability (SW 900; first compound 0.04 µM) was 0.602 and the relative viability (SW 900; first compound 0.1265 µM) was 0.611. It also gave a relative viability (SW 900; first compound 0.4 µM) of 0.582, a relative viability (SW 900; first compound 1.265 µM) of 0.437 and a relative viability (NCI-H2405; first compound 0.04 µM) of 1.02. The relative viability (NCI-H2405; first compound 0.1265 µM) was 1.12, the relative viability (NCI-H2405; first compound 0.4 µM) was 0.944 and the relative viability (NCI-H2405; first compound 1.265 µM) was 0.668.
